Like-named read-outs stand apart in the source and are kept apart here.
Legend:
PfGSK-3 = molecular target: T1, PfGSK-3 (Plasmodium falciparum, UniProt O77344); assay: Kinase assay with recombinant (His)6-tagged PfGSK3, GS-1 peptide and [γ-33P] ATP; assay type: biochemical; conditions: for anti-PfGSK-3 IC50 values: result in words
T1 construct: His6; made in house; host or cells: Escherichia coli TOP 10
T1 sequence (O77344 1-440): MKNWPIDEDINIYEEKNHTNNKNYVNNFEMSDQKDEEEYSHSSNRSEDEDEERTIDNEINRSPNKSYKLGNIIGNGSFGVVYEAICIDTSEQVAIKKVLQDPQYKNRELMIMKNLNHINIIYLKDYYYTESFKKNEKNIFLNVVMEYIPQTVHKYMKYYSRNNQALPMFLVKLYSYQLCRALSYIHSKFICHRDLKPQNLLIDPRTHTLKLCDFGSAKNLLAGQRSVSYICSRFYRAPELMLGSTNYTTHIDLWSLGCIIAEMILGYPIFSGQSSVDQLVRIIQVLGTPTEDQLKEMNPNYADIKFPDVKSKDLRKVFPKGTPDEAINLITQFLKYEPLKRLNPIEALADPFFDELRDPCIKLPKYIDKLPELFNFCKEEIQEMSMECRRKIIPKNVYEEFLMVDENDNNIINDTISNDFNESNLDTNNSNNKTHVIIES
Protocol: Escherichia coli strain (TOP 10) containing a plasmid encoding PfGSK3 with six histidines (pBAD-Thio-TOPO, Invitrogen) were cultured into 500 ml of LB medium containing 100 µg/ml ampicillin, at 37°C, under shaking (250 rpm) until OD600 of 0.5 was reached. Expression was induced with 0.5 ml of 20% arabinose (0.02% final concentration). The culture was grown at 37°C with shaking for 4 hours. Cells were harvested by centrifugation at 9000 rpm for 10 min. The bacterial pellet was stored frozen at -80°C until further processing. For proteins extraction, pellet was resuspended in 10 ml of lysis buffer (50 mM NaH2PO4 pH 8.0, 300 mM NaCl, 10 mM imidazole) with the addition of protease inhibitors (complete EDTA-free, Roche) and lysozyme ([…] final). Cells were disrupted by sonication and the cell lysate was centrifuged at 24000 rpm for 30 min at 4°C. The recombinant PfGSK3 protein was purified by Immobilized Metal Affinity Chromatography according to a batch procedure on 1 ml of Nickel affinity resin (Ni-NTA agarose beads, Qiagen). Beads were washed four times with 10 ml of wash buffer (50 mM NaH2PO4 pH 8.0, 300 mM NaCl, 30 mM imidazole). Protein was eluted with one volume of elution buffer (50 mM NaH2PO4 pH 8.0, 300 mM NaCl, 250 mM imidazole, 10% glycerol).
Both porcine GSK3 and PfGSK3 were assayed with 40 µM GS-1 peptide, a specific GSK-3 substrate, ([…]pEDEEE, synthesized by the Peptide Synthesis Unit, Institute of Biomolecular Sciences, University of Southampton, U.K.), in buffer A (25 mM Tris-HCl pH 7.5, 10 mM MgC12, 1 mM EGTA, 1 mM DTT, 50 µg heparin/ml, 0.5 mg BSA/ml) in the presence of 15 µM [γ-^33P] ATP (3000 Ci/mmol; 1 mCi/ml) in a final volume of 30 µl. After 30 min. incubation at 30°C, 25 µl aliquots of supernatant were spotted onto 2.5 x 3 cm pieces of Whatman P81 phosphocellulose paper, and, 20 sec. later, the filters were washed five times (for at least 5 min. each time) in 1 % phosphoric acid. The wet filters were counted in the presence of 1 ml ACS (Amersham) scintillation fluid. The kinase activity was expressed in pmoles phosphate incorporated in GS-1 or in percentage of the maximal activity.

GSK-3 [1] = molecular target: T2, GSK-3 (Leishmania major, UniProt Q4QE15); assay: Species specificity: recombinant tagged GSK-3 orthologue kinase assay; assay type: biochemical, Leishmania majo
T2 construct: made in house
T2 sequence (Q4QE15 entry or part of it): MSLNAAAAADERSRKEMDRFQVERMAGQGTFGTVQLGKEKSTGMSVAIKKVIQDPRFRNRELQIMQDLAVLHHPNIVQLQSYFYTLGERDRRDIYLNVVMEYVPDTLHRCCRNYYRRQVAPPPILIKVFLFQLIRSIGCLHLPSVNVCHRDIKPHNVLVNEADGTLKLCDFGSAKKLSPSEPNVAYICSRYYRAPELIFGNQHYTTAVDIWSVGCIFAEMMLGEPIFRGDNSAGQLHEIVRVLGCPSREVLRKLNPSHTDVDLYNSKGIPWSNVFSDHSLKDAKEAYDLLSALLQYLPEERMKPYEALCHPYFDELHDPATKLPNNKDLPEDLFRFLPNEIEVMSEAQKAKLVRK
Text: (§1) Given the strong conservation of GSK-3 across evolution and the surprising selectivity of the compounds according to the present invention towards PfGSK-3 versus mammalian GSK-3, a selection of 12 GSK-3 orthologues of various species chosen on the "tree of life" analyzed. The species belong to the Apicomplexa (P. falciparum, P. vivax, P. knowlesi and P. berghei (Gardner, M.J. et al. Genome sequence of the human malaria parasite Plasmodium falciparum. Nature 419, 498-511 (2002); Carlton, J.M. et al. Comparative genomics of the neglected human malaria parasite Plasmodium vivax. Nature 455, 799-803 (2008); Pain, A. et al. The genome of the simian and human malaria parasite Plasmodium knowlesi. Nature 455, 799-803 (2008).). Toxoplasma gondii (Qin, C.L., Tang, J. and Kim, K. Cloning and in vitro expression of TPK3, a Toxoplasma gondii homologue of shaggy/glycogen synthase kinase-3 kinases. Mol. Biochem. Parasitol. 93, 273-283 (1998)), Cryptosporidium parvum.
(§2) Following PCR amplification from cDNA libraries or direct synthesis based on databases sequences, the GSK-3 genes were inserted in appropriate expression vectors and recombinant, tagged kinases were expressed, affinity purified and assayed in the presence of up to 10-100µM of each compound of formula (I) according to the present invention and a selection of the PfGSK-3 inhibitors.

GSK-3 [2] = molecular target: T3, GSK-3 (Dictyostelium discoideum, UniProt P51136); assay: as above; assay type: biochemical
T3 construct: made in house
T3 sequence (P51136 whole entry): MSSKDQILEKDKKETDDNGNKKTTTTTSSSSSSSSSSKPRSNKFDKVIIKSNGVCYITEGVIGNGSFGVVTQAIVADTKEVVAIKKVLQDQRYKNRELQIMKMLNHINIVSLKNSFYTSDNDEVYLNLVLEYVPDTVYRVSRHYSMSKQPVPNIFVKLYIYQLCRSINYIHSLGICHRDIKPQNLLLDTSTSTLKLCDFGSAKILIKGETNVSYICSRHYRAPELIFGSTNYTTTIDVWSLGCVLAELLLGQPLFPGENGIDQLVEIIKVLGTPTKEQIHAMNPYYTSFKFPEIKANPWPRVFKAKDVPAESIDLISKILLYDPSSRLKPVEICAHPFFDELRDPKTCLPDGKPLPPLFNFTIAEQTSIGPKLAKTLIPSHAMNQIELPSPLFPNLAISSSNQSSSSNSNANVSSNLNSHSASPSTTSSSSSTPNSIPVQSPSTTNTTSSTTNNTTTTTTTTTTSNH
Text: as §1, §2

GSK-3 [3] = molecular target: T4, GSK-3 (Plasmodium falciparum, UniProt O77344); assay: as above; assay type: biochemical
T4 construct: made in house
Text: as §1, §2

GSK-3 α = molecular target: T5, GSK-3 α (Homo sapiens, UniProt P49840); assay: as above; assay type: biochemical; conditions: calculated from dose-response curves; -(100) taken as no inhibition at 100
T5 construct: made in house
T5 sequence (P49840 whole entry): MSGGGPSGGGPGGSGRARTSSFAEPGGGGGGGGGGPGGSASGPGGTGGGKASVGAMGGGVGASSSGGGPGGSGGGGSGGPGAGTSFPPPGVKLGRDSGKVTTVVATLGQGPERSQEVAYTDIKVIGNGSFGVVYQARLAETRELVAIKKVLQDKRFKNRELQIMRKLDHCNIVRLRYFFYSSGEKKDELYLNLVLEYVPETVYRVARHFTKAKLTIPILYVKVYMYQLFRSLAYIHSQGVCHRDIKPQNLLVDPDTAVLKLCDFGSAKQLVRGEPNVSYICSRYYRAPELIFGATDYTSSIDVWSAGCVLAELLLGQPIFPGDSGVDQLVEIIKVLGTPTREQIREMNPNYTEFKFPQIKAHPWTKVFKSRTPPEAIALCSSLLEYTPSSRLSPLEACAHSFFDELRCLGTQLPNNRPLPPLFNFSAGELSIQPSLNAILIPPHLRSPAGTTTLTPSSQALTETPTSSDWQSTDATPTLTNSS
Text: as §1, §2

GSK-3 α/β = assay: as above; assay type: biochemical; conditions: calculated from dose-response curves; -(100) taken as no inhibition at 100; read-out: IC50 Sus scrofa (GSK-3 α/β)
Text: as §1, §2

GSK- 3 β = molecular target: T6, GSK- 3 β (Homo sapiens, UniProt P49841); assay: as above; assay type: biochemical; conditions: calculated from dose-response curves; -(100) taken as no inhibition at 100
T6 construct: made in house
T6 sequence (P49841 whole entry): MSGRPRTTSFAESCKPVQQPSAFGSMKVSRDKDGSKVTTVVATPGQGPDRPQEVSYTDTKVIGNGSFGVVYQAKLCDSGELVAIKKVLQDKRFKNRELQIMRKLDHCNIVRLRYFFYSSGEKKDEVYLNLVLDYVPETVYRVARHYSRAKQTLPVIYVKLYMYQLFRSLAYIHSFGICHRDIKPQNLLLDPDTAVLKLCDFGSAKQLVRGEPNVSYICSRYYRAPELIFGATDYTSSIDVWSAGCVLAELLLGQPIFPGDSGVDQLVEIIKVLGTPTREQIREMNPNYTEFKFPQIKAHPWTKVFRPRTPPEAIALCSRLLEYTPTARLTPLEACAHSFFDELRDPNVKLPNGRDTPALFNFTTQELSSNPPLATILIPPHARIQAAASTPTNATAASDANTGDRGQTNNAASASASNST
Text: as §1, §2

[4] = system: panel of 22 purified kinases, including 4 P. falciparum kinases; assay: Small panel of 22 purified kinases; assay type: biochemical; conditions: at concentrations up to 10 µM
Protocol: Compound No. 22 was also tested on a small panel of 22 purified kinases, including 4 P. falciparum kinases. […] To complement this selectivity study, compound No 22 was run on two large scale selectivity panels: Prof. P. Cohen's kinase selectivity panel (76 kinases) (Bain J, Plater L, Elliott M, Shapiro N, Hastie CJ, McLauchlan H et al. (2007). The selectivity of protein kinase inhibitors: a further update. Biochem J. 408: 297-315.) and the Ambit Biosciences interaction assay (402 kinases) (Karaman MW, Herrgard S, Treiber DK, Gallant P, Atteridge CE, Campbell BT, Chan KW, Ciceri P, Davis MI, Edeen PT, Faraoni R, Floyd M, Hunt JP, Lockhart DJ, Milanov ZV, Morrison MJ, Pallares G, Patel HK, Pritchard S, Wodicka LM, Zarrinkar PP. A quantitative analysis of kinase inhibitor selectivity. Nat Biotechnol. 2008 Jan;26(1):127-32.).

[5] = unit only in the introducing sentence b99, not in the table, read-out: IC50 PfGSK-3

| SMILES | anti-PfGSK-3 IC50 values (PfGSK-3) | IC50 (GSK-3 [1]) | IC50 (GSK-3 [2]) | IC50 (GSK-3 [3]) | IC50 (GSK-3 α) | IC50 (GSK-3 α/β) | IC50 (GSK- 3 β) | IC50 (GSK-3 [3]; read-out: IC50 Plasmodium falciparum, calculated from dose-response curves) | IC50 (PfGSK-3; read-out: PfGSK-3 IC50) | IC50 (PfGSK-3; [5]) | inhibition of kinases of the panel besides PfGSK-3 [4] |
| --- | --- | --- | --- | --- | --- | --- | --- | --- | --- | --- | --- |
| COc1ccccc1-c1c(C#N)c(N)nc2sc(C(=O)c3ccccc3)c(N)c12 [Compound 2, 3,6-diamino-2-benzoyl-4-(2-methoxyphenyl)thieno[2,3-b]pyridine-5-carbonitrile] | particularly good | > 100 µM | > 100 µM | 7.8 µM | > 100 µM | > 100 µM |  |  |  |  |  |
| N#Cc1c(N)nc2sc(C(=O)c3cccc(Cl)c3)c(N)c2c1-c1ccccc1I [Compound 14, 3,6-diamino-2-(3-chlorobenzoyl)-4-(2-iodophenyl)thieno[2,3-b]pyridine-5-carbonitrile] | particularly good | > 100 µM | > 100 µM |  | > 100 µM | > 100 µM | 50 µM | 101 µM |  |  |  |
| N#Cc1c(N)nc2sc(C(=O)c3cccc(Cl)c3)c(N)c2c1-c1ccccc1Br [Compound 20, 3,6-diamino-4-(2-bromophenyl)-2-(3-chlorobenzoyl)thieno[2,3-b]pyridine-5-carbonitrile] | particularly good | > 100 µM | 80 µM | 0.47 µM | > 100 µM | 5.6 µM | 4 µM |  |  |  |  |
| N#Cc1c(N)nc2sc(C(=O)c3cccc(Cl)c3)c(N)c2c1-c1ccccc1Cl [Compound 22, 3,6-diamino-2-(3-chlorobenzoyl)-4-(2-chlorophenyl)thieno[2,3-b]pyridine-5-carbonitrile] | particularly good | > 100 µM | > 10 µM | 0.41 µM | > 100 µM | > 10 µM | 3.3 µM |  | 0.47 µM | 0.06 µM | no kinase was found to be inhibited |
| N#Cc1cccc(C(=O)c2sc3nc(N)c(C#N)c(-c4ccccc4Cl)c3c2N)c1 [Compound 26, 3,6-diamino-4-(2-chlorophenyl)-2-(3-cyanobenzoyl)thieno[2,3-b]pyridine-5-carbonitrile] | particularly good | > 100 µM | > 100 µM | 0.21 µM | > 25 µM | 22 µM | 8.1 µM |  |  | 0.5 µM |  |

Source: patent EP2308883A1, “New derivatives of thieno[2,3-b]pyridine and 5,6,7,8 tetrahydrothieno[2,3 b]quinoline in particular useful in the treatment of malaria” (priority 2009, dated 2011)
